Measurements taken from PMC12147183, “Lacritin cleavage-potentiated targeting of iron - respiratory reciprocity promotes bacterial death” (The Journal of Biological Chemistry, 2025).
Peptide text beside a SMILES is read from it.

Experiments:
[1] = Surface plasmon resonance on chip-supported Gram-negative model membrane
P. aeruginosa PA14 = assay: N-104 sub-MIC generational resistance assay; type: cell-based, Pseudomonas aeruginosa; details: PA14 treated at subminimal inhibitory and minimal inhibitory concentrations, n = 2
Procedure: Supplementary Fig. 2. Thirty generations of PA14 fail to develop stable N-104 resistance together with biological replicates related to Fig. 2. A, Schematic of the N-104 sub-minimal inhibitory concentration (‘sub-MIC’) N-104 resistant assay. […] . This process was repeated through 30 generations. B, Generational fold change of N-104 MIC over 30 generations. The original sub-MIC N-104 concentration was 2 µM, for which there was no initial sub-MIC change ([mean], n = 2, *p<0.05; ns, not significant [Friedman ANOVA with Dunn's multiple comparisons test]). C, Biological replicates of the N-104 sub-MIC resistant assay. Scale bar is 2 mm. […] Scale bar is 2 mm.

CC(=O)N[C@@H](C)C(=O)N[C@@H](CCC(N)=O)C(=O)N[C@@H](CCCCN)C(=O)N[C@@H](CC(C)C)C(=O)N[C@@H](CC(C)C)C(=O)N[C@@H](CCCCN)C(=O)N[C@@H](CCCCN)C(=O)N[C@@H](Cc1ccccc1)C(=O)N[C@@H](CO)C(=O)N[C@@H](CC(C)C)C(=O)N[C@@H](CC(C)C)C(=O)N[C@@H](CCCCN)C(=O)N1CCC[C@H]1C(=O)N[C@@H](Cc1c[nH]c2ccccc12)C(=O)N[C@@H](C)C(=O)O [N-104] (Ac-AQKLLKKFSLLKPWA-OH)
membrane lysis or disruption concluded from SPR ([1]; 2-25 μM N-104, PC:PG:PE and PC:PG membranes): not membrane lytic nor substantially membrane disruptive | SPR response after buffer wash versus baseline ([1]; highest N-104 concentration (25 μM), flow 30 μl/min, 600 s, n = 4): remained slightly elevated over baseline | development of resistance over 30 successive generations (P. aeruginosa PA14): No stable resistance was apparent
